{
  "source": "paper PMC12523642",
  "about": "“Unveiling the Bioactive Potential of Allium colchicifolium Boiss Bulb Flavonoids: Anti-cancer Activities, and Computational Exploration of Anti-angiogenic Mechanisms” (Iranian Journal of Pharmaceutical Research : IJPR, 2025)",
  "key": {"[1]": {"tested_on": "VEGF receptor-2 and angiogenesis cellular signaling pathways", "conditions": "25 µM; cited from earlier work"}, "[2]": {"tested_on": "MCF7 (human breast adenocarcinoma)", "test": "MTT cytotoxicity assay on MCF-7", "format": "cell-based", "conditions": "MCF7, 24 h, mean ± SD, read-out: Cytotoxic activity IC50, MCF-7", "method": "(§1) Cancer cell lines, including PC3 NCBI-C427 (human prostate adenocarcinoma), HeLa NCBI-C115 (human cervix carcinoma), MCF7 NCBI-C135 (human breast adenocarcinoma), and a normal cell line, human umbilical vein endothelial cell (HUVEC) NCBI-C554, were purchased from the Pasteur Institute of Tehran, Iran. Cells were cultured and maintained in Dulbecco’s modified Eagle’s medium (DMEM) supplemented with 10% fetal bovine serum (FBS) and 2% (v/v) streptomycin-penicillin in a humidified incubator with a 5% CO2 atmosphere at 37°C. Passages 2 to 3 of the cells were utilized for the cytotoxicity assay ([18]).\n(§2) The MTT assay was used to determine the cytotoxic activities of the MeOH extract, isolated compounds (1 - 3), and doxorubicin (as a positive control) on human cancer cell lines. For the MTT assay, concentrations (1, 5, 10, 25, 50, 100 µg) of the samples were prepared in DMEM as diluent and incubated with cells (10^5 cells/mL) for 24 hours in 96-well plates. Then, the MTT powder was added to the wells and incubated for 4 hours at 37°C. Absorbance was measured at 570 nm using a microplate reader. The experiment was performed in triplicate, and cell viability percentages were calculated by the following equation: […]. The negative control was untreated cells. The cytotoxicity IC50 value for the extracts was defined as the concentration that reduces 50% cell viability ([19])."}, "[3]": {"tested_on": "HeLa (human cervix carcinoma)", "test": "MTT cytotoxicity assay on HeLa", "format": "cell-based", "conditions": "24 hours, mean ± SD, read-out: Cytotoxic activity IC50, HeLa", "method": "as §1, §2"}, "[4]": {"tested_on": "chicken chorioallantoic membrane (CAM)", "test": "Chick chorioallantoic membrane (CAM) anti-angiogenesis assay", "format": "in vivo", "conditions": "Gallus gallus, read-out: Anti-angiogenesis IC50 (50% inhibition of angiogenesis)", "method": "The anti-angiogenesis activities of the MeOH extract and isolated compounds ([1]-[3]) were evaluated using the chicken chorioallantoic membrane (CAM) model. Briefly, pathogen-free fertilized chicken eggs were purchased from Baharan Parent Stock Company, Kermanshah, Iran, and incubated at 37°C with 75% humidity for 7 days. Then, square windows (1 cm^2) were opened in the outer shell of the eggs, and different concentrations of samples were loaded. After 48 hours, the zones around the discs were photographed with a digital camera and macroscopically assayed for neovascular zones of CAM in each treatment group. The effects on local vessel density within a 10 cm^2 area surrounding the windows were measured in each treatment group using AngioSoft software (V, 2019) ([12], [13]). The study was done in triplicate for each experimental group (8 eggs). The anti-angiogenesis IC50 value for the extracts was reported as the concentration that reduces 50% angiogenesis compared to the blank disk.\nThe results of the anti-angiogenesis activities of isolated flavonoids (1 - 3) and the MeOH extract of A. colchicifolium bulbs on the CAM model of angiogenesis are shown in Figure 2A and B. The IC50 of each compound was considered as the concentration that caused 50% inhibition of angiogenesis in a 100 mm^2 area surrounding each sample disc compared to the negative control disc (distilled water)."}, "[5]": {"test": "MTT cytotoxicity assay on HUVEC (normal cell line)", "format": "cell-based", "conditions": "human, HUVEC (umbilical vein endothelial cells), mean ± SD, read-out: Cytotoxic activity IC50, HUVEC", "method": "as §1, §2"}, "mice VEGF serum levels": {"tested_on": "mice VEGF serum levels", "design": "method as in PMID 23867787", "conditions": "20 mg/kg; by reducing mice VEGF serum levels; cited from earlier work"}, "[6]": {"tested_on": "PC3 (human prostate adenocarcinoma)", "test": "MTT cytotoxicity assay on PC3", "format": "cell-based", "conditions": "24 h, mean ± SD, read-out: Cytotoxic activity IC50, PC3", "method": "as §1, §2"}, "CAM model": {"tested_on": "CAM model", "conditions": "10 nM; by blocking matrix metalloproteinase-2 gene expression; cited from earlier work"}, "[7]": {"conditions": "CAM model, 48 hours, compared to negative control disc"}},
  "note": "Read-outs that look alike come from different tables or passages of the source.",
  "data": [
    {"smiles": "COc1ccc(-c2oc3c(C)c(OC)cc(OC)c3c(=O)c2OC)cc1OC", "note": "[8-methylquercetin-3,5,7,3',4'-pentamethyl ether, reference compound]", "values": [
      {"measurement": "Anti-angiogenesis activities", "setting": "[1]", "value": "demonstrated anti-angiogenesis activities"}
    ]},
    {"smiles": "C[C@@H]1O[C@@H](OC[C@H]2O[C@@H](Oc3c(-c4ccc(O)c(O)c4)oc4cc(O)cc(O)c4c3=O)[C@H](O)[C@@H](O)[C@@H]2O)[C@H](O)[C@H](O)[C@H]1O", "note": "[Compound 1, quercetin 3-O-rutinoside]", "values": [
      {"measurement": "IC50", "setting": "[2]", "value": "3.16 ± 0.3", "unit": "µg/mL"},
      {"measurement": "IC50", "setting": "[3]", "value": "6.95 ± 0.32", "unit": "µg/mL"},
      {"measurement": "IC50", "setting": "[4]; [7]", "value": "7.12 ± 0.1", "unit": "µg/mL"},
      {"measurement": "IC50 at 24 h", "setting": "[5]", "value": "9.35 ± 0.8", "unit": "µg/mL"},
      {"measurement": "Inhibition of angiogenesis", "setting": "mice VEGF serum levels", "value": "inhibited angiogenesis"},
      {"measurement": "IC50", "setting": "[6]", "value": "2.96 ± 0.16", "unit": "µg/mL"}
    ]},
    {"smiles": "COc1cc(-c2oc3cc(O)cc(O)c3c(=O)c2O[C@@H]2O[C@H](CO)[C@@H](O)[C@H](O)[C@H]2O)ccc1O", "note": "[Compound 2, isorhamnetin 3-O-glucoside]", "values": [
      {"measurement": "IC50", "setting": "[2]", "value": "2.58 ± 0.21", "unit": "µg/mL"},
      {"measurement": "IC50", "setting": "[3]", "value": "8.43 ± 0.32", "unit": "µg/mL"},
      {"measurement": "IC50", "setting": "[4]; [7]", "value": "6 ± 0.21", "unit": "µg/mL"},
      {"measurement": "IC50 at 24 h", "setting": "[5]", "value": "9.96 ± 0.37", "unit": "µg/mL"},
      {"measurement": "IC50", "setting": "[6]", "value": "1.72 ± 0.02", "unit": "µg/mL"}
    ]},
    {"smiles": "O=c1c(O)c(-c2ccc(O)c(O)c2)oc2cc(O)cc(O)c12", "note": "[Compound 3, quercetin]", "values": [
      {"measurement": "IC50", "setting": "[2]", "value": "≤ 3", "unit": "µg/mL"},
      {"measurement": "IC50", "setting": "[3]", "value": "6.17 ± 0.13", "unit": "µg/mL"},
      {"measurement": "IC50", "setting": "[4]; 48 h", "value": "5.3 ± 0.3", "unit": "µg/mL"},
      {"measurement": "IC50 at 24 h", "setting": "[5]", "value": "7.23 ± 0.29", "unit": "µg/mL"},
      {"measurement": "Anti-angiogenesis on the CAM model", "setting": "CAM model", "value": "exhibited anti-angiogenesis"},
      {"measurement": "IC50", "setting": "[6]", "value": "≤ 3", "unit": "µg/mL"},
      {"measurement": "Anti-angiogenesis activities", "setting": "[1]", "value": "demonstrated anti-angiogenesis activities"}
    ]},
    {"smiles": "COc1cccc2c1C(=O)c1c(O)c3c(c(O)c1C2=O)C[C@@](O)(C(=O)CO)C[C@@H]3O[C@H]1C[C@H](N)[C@H](O)[C@H](C)O1", "note": "[Doxorubicin, doxorubicin, reference compound]", "values": [
      {"measurement": "IC50", "setting": "[2]", "value": "0.034 ± 0.01", "unit": "µg/mL"},
      {"measurement": "IC50", "setting": "[3]", "value": "0.066 ± 0.007", "unit": "µg/mL"},
      {"measurement": "IC50 at 24 h", "setting": "[5]", "value": "0.045 ± 0.006", "unit": "µg/mL"},
      {"measurement": "IC50", "setting": "[6]", "value": "0.051 ± 0.004", "unit": "µg/mL"}
    ]}
  ]
}
